From ChEMBL document CHEMBL1201862, “PubChem BioAssay data set” (2004)
Active and inactive are the calls of the source.

How the values were obtained:
Genome polyprotein = Genome polyprotein (dengue virus type 2, UniProt P29990); assay: Dengue-2 NS5 methyltransferase inhibitors, primary screen, biochemical, confirmation dose response (AID 588689); format: functional
[1] = target: T1, Carboxy-terminal domain RNA polymerase II polypeptide A small phosphatase 1 (Homo sapiens, UniProt Q9GZU7); assay: inhibitors of CTDSP1, concentration-response testing, biochemical assay, absorbance-based, actives from ultra-high-throughput screening (AID 540297); format: functional
T1 sequence (Q9GZU7 whole entry): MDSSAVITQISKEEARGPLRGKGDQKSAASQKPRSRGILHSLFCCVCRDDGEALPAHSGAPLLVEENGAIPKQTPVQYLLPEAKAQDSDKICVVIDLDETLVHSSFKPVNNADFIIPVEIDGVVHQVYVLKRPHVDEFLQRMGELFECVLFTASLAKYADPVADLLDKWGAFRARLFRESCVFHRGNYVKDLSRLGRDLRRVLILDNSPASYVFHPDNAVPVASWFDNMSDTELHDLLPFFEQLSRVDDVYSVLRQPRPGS

[2] = Luminescence Cell-Based Dose Confirmation HTS to Identify Inhibitors of Platelet Dense Granule Release. [Related pubchem assays: 1663 (Primary HTS), 1678 (Summary of Project)]; format: functional
[3] = target: Luciferin 4-monooxygenase (Photinus pyralis, UniProt P08659); assay: firefly luciferase enzyme inhibitors, dose response, biochemical, luminescence (AID 1891)
Luciferin 4-monooxygenase, sequence (P08659 whole entry): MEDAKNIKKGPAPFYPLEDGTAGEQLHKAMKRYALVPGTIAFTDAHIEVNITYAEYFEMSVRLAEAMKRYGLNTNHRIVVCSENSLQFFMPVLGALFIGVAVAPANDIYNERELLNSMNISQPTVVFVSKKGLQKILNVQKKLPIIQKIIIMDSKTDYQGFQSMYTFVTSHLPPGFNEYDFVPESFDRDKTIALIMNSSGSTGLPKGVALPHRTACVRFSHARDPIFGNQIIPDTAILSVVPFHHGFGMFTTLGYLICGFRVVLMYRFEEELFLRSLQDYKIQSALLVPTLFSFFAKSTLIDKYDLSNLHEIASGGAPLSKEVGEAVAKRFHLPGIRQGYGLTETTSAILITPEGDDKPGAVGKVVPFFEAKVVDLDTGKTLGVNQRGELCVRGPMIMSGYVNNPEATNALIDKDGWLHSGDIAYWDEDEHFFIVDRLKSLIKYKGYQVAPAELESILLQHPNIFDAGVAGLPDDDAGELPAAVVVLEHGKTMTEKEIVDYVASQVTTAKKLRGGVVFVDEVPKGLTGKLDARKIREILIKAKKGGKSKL

[4] = target: Heat shock protein HSP 90-alpha (Homo sapiens, UniProt P07900); format: functional, organism-based
[5] = target: T2, RNA-binding protein pos-1 (Caenorhabditis elegans, UniProt G5EF15); assay: inhibitors of POS-1/mex-3 RNA binding, dose response, biochemical, fluorescence polarization (AID 1964);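 note: purified POS-1 fused to maltose binding protein made in E. coli; potency of compounds blocking POS-1 binding to fluorescent RNA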
T2 sequence (G5EF15 whole entry): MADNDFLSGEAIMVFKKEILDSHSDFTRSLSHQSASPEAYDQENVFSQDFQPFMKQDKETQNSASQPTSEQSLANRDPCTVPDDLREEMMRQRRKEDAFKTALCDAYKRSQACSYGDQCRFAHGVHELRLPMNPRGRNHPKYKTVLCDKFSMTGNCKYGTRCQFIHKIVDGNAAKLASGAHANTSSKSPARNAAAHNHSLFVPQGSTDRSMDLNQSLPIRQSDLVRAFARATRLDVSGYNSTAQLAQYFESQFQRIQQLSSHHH

[6] = target: T3, Zinc finger protein mex-5 (Caenorhabditis elegans, UniProt Q9XUB2); assay: MEX-5/TCR-2 RNA interaction inhibitors, dose response, biochemical, C. elegans, fluorescence polarization (AID 1960)
T3 sequence (Q9XUB2 whole entry): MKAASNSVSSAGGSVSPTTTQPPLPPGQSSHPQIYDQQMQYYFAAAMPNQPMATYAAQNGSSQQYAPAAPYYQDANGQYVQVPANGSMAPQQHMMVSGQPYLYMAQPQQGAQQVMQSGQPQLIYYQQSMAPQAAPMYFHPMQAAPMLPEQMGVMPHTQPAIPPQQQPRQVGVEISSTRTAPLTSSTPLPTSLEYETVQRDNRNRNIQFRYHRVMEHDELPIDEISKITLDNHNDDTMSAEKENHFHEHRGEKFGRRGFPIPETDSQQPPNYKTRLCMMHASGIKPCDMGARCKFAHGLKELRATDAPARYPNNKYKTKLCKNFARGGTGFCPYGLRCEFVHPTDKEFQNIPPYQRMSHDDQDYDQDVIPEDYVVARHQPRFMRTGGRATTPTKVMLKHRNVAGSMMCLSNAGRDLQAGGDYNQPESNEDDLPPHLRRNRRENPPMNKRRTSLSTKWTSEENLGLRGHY

[7] = target: T4, Microphthalmia-associated transcription factor (Homo sapiens, UniProt O75030); assay: TRPM1 promoter luciferase signal decrease, dose response, MITF inhibitor project, cell-based, SK-MEL-5, cherry-picked, set 3 (AID 493073); format: functional
T4 sequence (O75030 whole entry): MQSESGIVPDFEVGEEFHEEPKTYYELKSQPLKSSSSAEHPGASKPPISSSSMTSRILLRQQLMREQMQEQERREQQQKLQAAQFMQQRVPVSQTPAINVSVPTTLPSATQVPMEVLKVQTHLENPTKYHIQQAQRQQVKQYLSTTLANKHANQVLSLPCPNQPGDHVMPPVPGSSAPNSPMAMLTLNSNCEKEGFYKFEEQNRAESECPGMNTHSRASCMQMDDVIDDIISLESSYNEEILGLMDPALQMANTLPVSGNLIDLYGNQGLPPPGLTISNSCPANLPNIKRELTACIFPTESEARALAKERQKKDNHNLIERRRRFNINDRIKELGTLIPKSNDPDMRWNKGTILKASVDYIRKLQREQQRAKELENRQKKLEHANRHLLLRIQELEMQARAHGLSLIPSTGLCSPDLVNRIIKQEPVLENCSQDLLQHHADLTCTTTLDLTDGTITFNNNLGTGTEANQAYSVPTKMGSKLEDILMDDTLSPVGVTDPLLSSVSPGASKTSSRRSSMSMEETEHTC

[8] = off-target signal loss in HeLa-CEM21 co-culture – HeLa F-luc CTL cells, cherry-picked, counter-screen for HIV-1 Env fusion inhibitor project, dose response (AID 652040); format: functional, cell-based;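 note: potency for signal decrease marking cytotoxic or nonspecific inhibition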
[9] = inhibitors of HIV Env-driven cell fusion, dose response, cherry-pick (AID 652057); format: functional, cell-based
[10] = Luminescence Cell-Based Dose Retest to Confirm Inhibitors of Cancer Stem Cells. [Related pubchem assays (depositor defined):AID2717, AID2721]; format: functional; details: Homo sapiens
Protein RecA = target: T5, Protein RecA (Mycobacterium tuberculosis, UniProt P9WHJ3); assay: Fluorescence Cell-Free Homogeneous Dose Retest to Identify Inhibitors of RecA-Intein Splicing Activity. [Related pubchem assays (depositor defined):AID2097, AID2223, AID489010, AID492950]; format: functional
T5 sequence (P9WHJ3 whole entry): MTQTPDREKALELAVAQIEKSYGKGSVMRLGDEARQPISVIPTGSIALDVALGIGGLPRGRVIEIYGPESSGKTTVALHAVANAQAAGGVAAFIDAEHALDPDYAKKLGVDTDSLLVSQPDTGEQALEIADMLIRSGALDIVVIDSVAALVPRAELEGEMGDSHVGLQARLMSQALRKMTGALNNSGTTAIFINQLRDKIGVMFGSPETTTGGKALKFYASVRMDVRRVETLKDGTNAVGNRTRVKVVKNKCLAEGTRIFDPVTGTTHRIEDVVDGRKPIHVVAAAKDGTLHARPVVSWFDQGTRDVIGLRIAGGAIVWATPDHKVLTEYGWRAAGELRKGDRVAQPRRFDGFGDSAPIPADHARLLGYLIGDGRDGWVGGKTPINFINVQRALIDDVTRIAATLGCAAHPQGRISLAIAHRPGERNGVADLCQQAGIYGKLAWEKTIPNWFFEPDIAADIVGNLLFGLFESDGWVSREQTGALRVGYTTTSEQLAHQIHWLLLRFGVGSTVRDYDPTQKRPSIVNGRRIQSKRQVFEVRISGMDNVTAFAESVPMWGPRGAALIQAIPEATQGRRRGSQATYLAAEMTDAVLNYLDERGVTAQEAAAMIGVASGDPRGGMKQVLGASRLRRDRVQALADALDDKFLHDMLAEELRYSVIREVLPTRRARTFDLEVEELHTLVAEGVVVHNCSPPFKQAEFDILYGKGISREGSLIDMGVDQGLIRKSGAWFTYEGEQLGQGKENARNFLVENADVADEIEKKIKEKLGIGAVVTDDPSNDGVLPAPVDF

Streptokinase A = target: T6, Streptokinase A (Streptococcus pyogenes serotype M1, UniProt P10520); assay: S. pyogenes streptokinase expression inhibitors, potency, dose response, plasminogen activation absorbance, OD405 (AID 1914); format: functional, Streptococcus pyogenes M1 GAS;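 note: secreted streptokinase activity via plasminogen activation per viability signal from cell pellet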
T6 sequence (P10520 whole entry): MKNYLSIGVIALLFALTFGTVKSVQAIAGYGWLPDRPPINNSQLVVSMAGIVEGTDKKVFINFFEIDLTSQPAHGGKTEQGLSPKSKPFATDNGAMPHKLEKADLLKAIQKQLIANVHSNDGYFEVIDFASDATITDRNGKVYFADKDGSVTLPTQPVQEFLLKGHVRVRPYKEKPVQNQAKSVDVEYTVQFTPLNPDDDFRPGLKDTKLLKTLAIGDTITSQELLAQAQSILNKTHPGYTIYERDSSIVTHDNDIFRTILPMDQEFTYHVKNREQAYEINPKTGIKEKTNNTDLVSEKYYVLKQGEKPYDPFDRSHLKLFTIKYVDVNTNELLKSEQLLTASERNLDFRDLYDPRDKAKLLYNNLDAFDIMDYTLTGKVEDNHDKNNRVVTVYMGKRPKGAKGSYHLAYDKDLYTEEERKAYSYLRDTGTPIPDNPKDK

Streptococcus = assay: Group A Streptococcus viability loss, dose response, counter-screen for streptokinase expression inhibitor project, luminescence, BacTiterGlo (AID 1915); format: functional, organism-based; details: read-out: EC50;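 note: potency for reduction of bacterial viability or growth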
[11] = test system: Streptococcus sp. 'group A'; assay: growth inhibition of control SK(-) GAS strain, dose response, counter-screen for streptokinase expression inhibitor project, luminescence, kanamycin, BacTiterGlo, confirmation (AID 1900); format: functional, organism-based
[12] = HEp-2 cell cytotoxicity, dose response, cytotoxicity control for RSV inhibitor project, HTS (AID 2410); format: functional; details: human respiratory syncytial virus
SN12K1 = assay: cells; format: functional; details: Homo sapiens
P388/ADR = assay: cells; format: functional; details: Mus musculus

Genome polyprotein, sequence (P29990 2492-3391 limits assumed): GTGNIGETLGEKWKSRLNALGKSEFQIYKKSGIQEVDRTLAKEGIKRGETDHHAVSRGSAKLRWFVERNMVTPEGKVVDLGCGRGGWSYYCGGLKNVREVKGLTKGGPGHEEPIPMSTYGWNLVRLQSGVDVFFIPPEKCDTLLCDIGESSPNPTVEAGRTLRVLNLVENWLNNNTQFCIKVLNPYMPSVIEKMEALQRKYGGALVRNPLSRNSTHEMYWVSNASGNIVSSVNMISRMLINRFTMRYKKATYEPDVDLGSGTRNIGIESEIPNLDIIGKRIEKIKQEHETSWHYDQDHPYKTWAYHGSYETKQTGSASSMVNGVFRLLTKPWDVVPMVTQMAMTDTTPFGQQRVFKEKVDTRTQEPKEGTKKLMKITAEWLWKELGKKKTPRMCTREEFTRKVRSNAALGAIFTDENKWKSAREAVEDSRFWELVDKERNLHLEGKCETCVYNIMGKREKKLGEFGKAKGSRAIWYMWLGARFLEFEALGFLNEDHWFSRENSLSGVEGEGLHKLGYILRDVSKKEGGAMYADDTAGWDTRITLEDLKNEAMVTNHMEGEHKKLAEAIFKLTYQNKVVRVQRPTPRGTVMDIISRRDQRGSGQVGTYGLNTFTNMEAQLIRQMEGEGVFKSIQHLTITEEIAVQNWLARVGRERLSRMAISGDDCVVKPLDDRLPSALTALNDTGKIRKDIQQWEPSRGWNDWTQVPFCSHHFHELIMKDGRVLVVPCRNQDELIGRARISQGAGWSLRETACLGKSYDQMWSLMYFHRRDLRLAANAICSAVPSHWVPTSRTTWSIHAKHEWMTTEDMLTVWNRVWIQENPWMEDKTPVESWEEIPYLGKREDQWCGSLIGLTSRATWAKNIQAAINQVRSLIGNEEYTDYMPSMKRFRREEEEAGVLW

SMILES: CC(C)OP(=O)(OC(C)C)C1(NS(=O)(=O)c2ccc(Cl)cc2)C=C(Cl)C(=O)C(Cl)=C1
- IC50 (Genome polyprotein): 99.3 µM (active)

SMILES: COc1ccc(/C=C(\C#N)C(=O)Nc2ccc3[nH]c(O)nc3c2)cc1
- IC50 [1]: 3.26 µM (active)

SMILES: O=C(/C=C/c1ccco1)NCCCN1CCN(CCCNC(=O)/C=C/c2ccco2)CC1
- EC50 [2]: > 112 µM (not active)
- EC50 [3]: > 112 µM (not active)

SMILES: CCOC(=O)C1CCCN(C2CC(=O)N(c3cccc(C(F)(F)F)c3)C2=O)C1 (stereo unspecified)
- AC50 [4]: 7.53 µM (active)

SMILES: O=C(Cn1cc(/C=N/NC(=O)c2cccc(C(F)(F)F)c2)c2ccccc21)Nc1ccc(F)cc1
- IC50 [1]: 4.23 µM (active)

SMILES: CC1CCN(C(=O)C2CCN(CC(C)c3ccccc3)CC2)CC1 (stereo unspecified)
- EC50 [2]: > 112 µM (not active)
- EC50 [3]: > 112 µM (not active)

SMILES: O=C1NC(=O)N(c2ccc(F)cc2)C(=O)/C1=C/Nc1ccccc1N1CCCC1
- EC50 [5]: 76.7 µM (active)
- EC50 [6]: 103 µM (active)

SMILES: COC(=O)C(C#N)c1nc2ccccc2nc1N1CCN(Cc2ccc3c(c2)OCO3)CC1 (stereo unspecified)
- EC50 [2]: > 112 µM (not active)
- EC50 [3]: > 112 µM (not active)

SMILES: O=C(c1ccc([N+](=O)[O-])s1)N1CCCc2ccccc21
- AC50 [7]: 11.2 µM (active)

SMILES: COCCN(C(=O)c1cc(-c2ccco2)nc2ccccc12)c1c(N)n(Cc2ccccc2)c(=O)[nH]c1=O
- IC50 [1]: 6.59 µM (active)

SMILES: COc1cccc(NC(=O)c2cccs2)c1
- EC50 [2]: > 112 µM (not active)
- EC50 [3]: > 112 µM (not active)

SMILES: CN1C(=O)C(=Cc2ccccc2OS(=O)(=O)c2ccccc2)C(=O)N(C)C1=O
- EC50 [5]: > 300 µM (not active)
- EC50 [6]: > 300 µM (not active)

SMILES: Cc1ccc(N2C(=O)C3C4C=CC(CN=C(S)N5CCN(c6cccc(C)c6)C(C)C5)(O4)C3C2=O)cc1 (stereo unspecified)
- AC50 [4]: 8.5 µM (active)

SMILES: O=C(Nc1ccc(Cl)cn1)C1CCCN1S(=O)(=O)c1cccc2ccccc12 (stereo unspecified)
- AC50 [8]: 53.6 µM (active)
- AC50 [9]: 29.8 µM (active)

SMILES: Cc1ccccc1NC(=O)/C(C#N)=C\c1cc(C)n(-c2ccc(C(=O)O)cc2)c1C
- EC50 [5]: > 300 µM (not active)
- EC50 [6]: > 300 µM (not active)

SMILES: O=C(/C=C/c1ccccc1[N+](=O)[O-])c1ccccc1Br
- AC50 [10]: 7.14 µM (active)
- AC50 [4]: 4.37 µM (active)

SMILES: Cc1cc(C)n(Cc2ccc(F)cc2)c(=O)c1C#N
- EC50 [2]: 15.7 µM (active)
- EC50 [3]: > 112 µM (not active)

SMILES: Cc1nn(C)c(Cl)c1CN1CCN(C2CCCCC2)C(CCO)C1 (stereo unspecified)
- EC50 [2]: > 112 µM (not active)
- EC50 [3]: > 112 µM (not active)

SMILES: CN(C)C(=O)COC(=O)c1ccc(S(=O)(=O)NCc2ccco2)cc1
- IC50 [1]: 6.65 µM (active)

SMILES: C=CCn1c(N)c(C(=O)Nc2cccc(C)c2)c2nc3ccccc3nc21
- EC50 (Protein RecA): 13.3 µM (active)
- EC50 (Streptokinase A): > 150 µM (not active)
- EC50 (Streptococcus): 8.54 µM (active)
- EC50 [11]: 2.97 µM (active)
- CC50 [12]: 11.4 µM (active)

SMILES: CC(=O)Nc1ccc(NC(=O)CSc2nc(N)c(NC(=O)c3ccccc3F)c(=O)[nH]2)cc1
- IC50 [1]: 11.9 µM (active)

SMILES: Fc1cc(F)cc(-c2c(-c3ccccc3)ncc3ccc(F)cc23)c1
- IC50 [1]: 8.88 µM (active)

SMILES: Nc1cc2[nH]cnc2c(=O)[nH]1 [DEZAGUANINE]
- GI50 (SN12K1): 13.8 µM (inactive)
- GI50 (P388/ADR): 10.2 µM (inactive)

SMILES: COc1cccc(NC(=O)C(=O)c2cn(CC(=O)N3CCOCC3)c3ccccc23)c1
- EC50 [5]: > 300 µM (not active)
- EC50 [6]: > 300 µM (not active)

SMILES: CN1CCN(C(=O)c2cc(COc3c(F)cccc3F)on2)CC1c1ccccc1 (stereo unspecified)
- AC50 [4]: 0.566 µM (active)

SMILES: CCOC(=O)/C(C#N)=C/c1cc2ccccc2nc1N1CCCCC1
- EC50 [5]: > 300 µM (not active)
- EC50 [6]: 104 µM (active)

SMILES: CCN1CCN(C(=O)c2ccc3c(=O)n(Cc4ccccc4OC)c(=S)[nH]c3c2)CC1
- EC50 [5]: > 300 µM (not active)
- EC50 [6]: > 300 µM (not active)
